Reference: PubChem BioAssay (NCI)
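Dose response: 5 concentrations. Exposure: 48 h. Format: 96-well plates. Endpoint: linear interpolation; highest concentration if not reached. GI50 = concentration required for 50% inhibition of growth. TGI: total growth inhibition.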

What was measured:
Assay in all cases: growth of human tumour cells (NCI), 48 h
786-0 renal = system: 786-0 renal
A498 renal = system: A498 renal
ACHN renal = system: ACHN renal
BT-549 breast = system: BT-549 breast
CAKI-1 renal = system: CAKI-1 renal
DU-145 prostate = system: DU-145 prostate
EKVX NSCLC = system: EKVX NSCLC
HCC-2998 colon = system: HCC-2998 colon
HCT-116 colon = system: HCT-116 colon
HCT-15 colon = system: HCT-15 colon
HOP-92 NSCLC = system: HOP-92 NSCLC
HS 578T breast = system: HS 578T breast
IGROV1 ovarian = system: IGROV1 ovarian
K-562 leukemia = system: K-562 leukemia
KM12 colon = system: KM12 colon
LOX IMVI melanoma = system: LOX IMVI melanoma
M14 melanoma = system: M14 melanoma
MALME-3M melanoma = system: MALME-3M melanoma
MCF7 breast = system: MCF7 breast
MDA-MB-231 breast = system: MDA-MB-231 breast
MDA-MB-435 = system: MDA-MB-435
MDA-MB-468 breast = system: MDA-MB-468 breast
MOLT-4 leukemia = system: MOLT-4 leukemia
NCI-H226 lung = system: NCI-H226 lung
NCI-H23 lung = system: NCI-H23 lung
NCI-H460 lung = system: NCI-H460 lung
NCI/ADR-RES ovarian = system: NCI/ADR-RES ovarian
OVCAR-3 ovarian = system: OVCAR-3 ovarian
OVCAR-4 ovarian = system: OVCAR-4 ovarian
OVCAR-5 ovarian = system: OVCAR-5 ovarian
RPMI-8226 leukemia = system: RPMI-8226 leukemia
RXF 393 renal = system: RXF 393 renal
SF-268 CNS = system: SF-268 CNS
SF-295 CNS = system: SF-295 CNS
SF-539 CNS = system: SF-539 CNS
SK-MEL-2 melanoma = system: SK-MEL-2 melanoma
SK-MEL-28 melanoma = system: SK-MEL-28 melanoma
SK-MEL-5 melanoma = system: SK-MEL-5 melanoma
SK-OV-3 ovarian = system: SK-OV-3 ovarian
SN12C renal = system: SN12C renal
SNB-19 CNS = system: SNB-19 CNS
SNB-75 CNS = system: SNB-75 CNS
SR leukemia = system: SR leukemia
SW-620 colon = system: SW-620 colon
TK-10 renal = system: TK-10 renal
U251 CNS = system: U251 CNS
UACC-257 melanoma = system: UACC-257 melanoma
UACC-62 melanoma = system: UACC-62 melanoma
UO-31 renal = system: UO-31 renal

CC1(C)CC[C@]23CC[C@]4(C)[C@H](CC[C@@H]5[C@@]6(C)CC[C@H](N)C(C)(C)[C@@H]6CC[C@]54C)[C@H]2[C@H]1OC3=O
GI50 (786-0 renal): 1450 nM | TGI (786-0 renal): 2920 nM | GI50 (A498 renal): 1480 nM | TGI (A498 renal): 3440 nM | GI50 (ACHN renal): 1680 nM | TGI (ACHN renal): 3050 nM | GI50 (BT-549 breast): 1520 nM | TGI (BT-549 breast): 2920 nM | GI50 (CAKI-1 renal): 1570 nM | TGI (CAKI-1 renal): 2980 nM | GI50 (DU-145 prostate): 1810 nM | TGI (DU-145 prostate): 3310 nM | GI50 (EKVX NSCLC): 1700 nM | TGI (EKVX NSCLC): 3160 nM | GI50 (HCC-2998 colon): 1610 nM | TGI (HCC-2998 colon): 3020 nM | GI50 (HCT-116 colon): 1600 nM | TGI (HCT-116 colon): 3050 nM | GI50 (HCT-15 colon): 1640 nM | TGI (HCT-15 colon): 3070 nM | GI50 (HOP-92 NSCLC): 1590 nM | TGI (HOP-92 NSCLC): 3150 nM | GI50 (HS 578T breast): 1890 nM | TGI (HS 578T breast): 4090 nM | GI50 (IGROV1 ovarian): 1680 nM | TGI (IGROV1 ovarian): 3100 nM | GI50 (K-562 leukemia): 2530 nM | TGI (K-562 leukemia): > 100000 nM | GI50 (KM12 colon): 1820 nM | TGI (KM12 colon): 3410 nM | GI50 (LOX IMVI melanoma): 1680 nM | TGI (LOX IMVI melanoma): 3050 nM | GI50 (M14 melanoma): 1810 nM | TGI (M14 melanoma): 3340 nM | GI50 (MALME-3M melanoma): 1670 nM | TGI (MALME-3M melanoma): 3060 nM | GI50 (MCF7 breast): 1570 nM | TGI (MCF7 breast): 3220 nM | GI50 (MDA-MB-231 breast): 1690 nM | TGI (MDA-MB-231 breast): 3090 nM | GI50 (MDA-MB-435): 1600 nM | TGI (MDA-MB-435): 3110 nM | GI50 (MDA-MB-468 breast): 1690 nM | TGI (MDA-MB-468 breast): 3180 nM | GI50 (MOLT-4 leukemia): 1850 nM | TGI (MOLT-4 leukemia): 4380 nM | GI50 (NCI-H226 lung): 2150 nM | TGI (NCI-H226 lung): 5470 nM | GI50 (NCI-H23 lung): 1740 nM | TGI (NCI-H23 lung): 3220 nM | GI50 (NCI-H460 lung): 1640 nM | TGI (NCI-H460 lung): 3170 nM | GI50 (NCI/ADR-RES ovarian): 1800 nM | TGI (NCI/ADR-RES ovarian): 3610 nM | GI50 (OVCAR-3 ovarian): 1660 nM | TGI (OVCAR-3 ovarian): 3100 nM | GI50 (OVCAR-4 ovarian): 1940 nM | TGI (OVCAR-4 ovarian): 3860 nM | GI50 (OVCAR-5 ovarian): 1650 nM | TGI (OVCAR-5 ovarian): 3020 nM | GI50 (RPMI-8226 leukemia): 2100 nM | TGI (RPMI-8226 leukemia): 5260 nM | GI50 (RXF 393 renal): 1630 nM | TGI (RXF 393 renal): 3110 nM | GI50 (SF-268 CNS): 1690 nM | TGI (SF-268 CNS): 3360 nM | GI50 (SF-295 CNS): 1760 nM | TGI (SF-295 CNS): 3220 nM | GI50 (SF-539 CNS): 1680 nM | TGI (SF-539 CNS): 3050 nM | GI50 (SK-MEL-2 melanoma): 3020 nM | TGI (SK-MEL-2 melanoma): 9410 nM | GI50 (SK-MEL-28 melanoma): 1780 nM | TGI (SK-MEL-28 melanoma): 3180 nM | GI50 (SK-MEL-5 melanoma): 1750 nM | TGI (SK-MEL-5 melanoma): 3140 nM | GI50 (SK-OV-3 ovarian): 12100 nM | TGI (SK-OV-3 ovarian): 37300 nM | GI50 (SN12C renal): 1640 nM | TGI (SN12C renal): 3050 nM | GI50 (SNB-19 CNS): 1640 nM | TGI (SNB-19 CNS): 3050 nM | GI50 (SNB-75 CNS): 1360 nM | TGI (SNB-75 CNS): 2860 nM | GI50 (SR leukemia): 1590 nM | TGI (SR leukemia): 5080 nM | GI50 (SW-620 colon): 1440 nM | TGI (SW-620 colon): 2860 nM | GI50 (TK-10 renal): 1700 nM | TGI (TK-10 renal): 3490 nM | GI50 (U251 CNS): 1720 nM | TGI (U251 CNS): 3270 nM | GI50 (UACC-257 melanoma): 1800 nM | TGI (UACC-257 melanoma): 3430 nM | GI50 (UACC-62 melanoma): 1730 nM | TGI (UACC-62 melanoma): 3190 nM | GI50 (UO-31 renal): 1510 nM | TGI (UO-31 renal): 2870 nM
